Data set [1] can be described thus: Cmax in human plasma at 200 mg qd for 4 days. It counts as ADME, organism-based. Also on record: dose 200 mg.
Data set [2] in a line: AUC (0 to tau) in human plasma at 200 mg qd for 4 days. It counts as ADME, organism-based.

As usually defined, the Cmax is the maximum level reached in the sampled fluid or tissue. Compound `CC(=O)N1CCN(c2ccc(OCC3COC(Cn4ccnc4)(c4ccc(Cl)cc4Cl)O3)cc2)CC1` (configuration not stated) [KETOCONAZOLE] registered a Cmax in data set [1] of 3770 ng/mL. This compound yielded an AUC tau at 96 h in data set [2] of 16600 ng·h/mL.

Values taken from ChEMBL document CHEMBL1155157, “Fosamprenavir plus ritonavir increases plasma ketoconazole and ritonavir exposure, while amprenavir exposure remains unchanged” (Antimicrob Agents Chemother, 2007).
